Measurements from US20080176923A1, “Proline Derivatives Used as Pharmaceutical Active Ingredients for the Treatment of Tumors” (priority 2003, published 2008).
In brackets after ≈: the same amount, converted by molar mass. Read-outs that look alike come from different tables or passages of the source.

Key:
[1] = tested on: MIA-PaCa2 pancreas tumor cell line; experiment: tumor cell proliferation test (EZ4U tetrazolium), MIA-PaCa2; format: cell-based; settings: Homo sapiens; for inhibition at 200 µg/mL / inhibition at 400 µg/mL: MIA PaCa-2, 96 h, read-out: inhibition of cellular proliferation
Protocol: (§1) The compounds of the invention were tested using the pancreas tumor cell lines MIYPaCa2 and BxPC3, the breast cancer cell lines MDA-MB-435 and BT20, as well as the colon cancer cell lines Colo205 and HT29. The cells were placed in culture medium (RPMI-1640 with 10% fetal calf serum and 4 mM glutamine) in 96-well microtiter plates to make 10,000 cells per well. The inventive components to be tested were diluted in microtiter plates according to the well-known procedure and incubated for 4 days under cell culture conditions (37° C., 5% CO2).
(§2) Following incubation, the proliferation was tested using a tetrazolium-based EZ4U kit from Biomedica (Vienna, Austria). The optical density (OD) of each well was determined by means of an ELISA Reader, and the control medium obtained was set to 100% (OD490 nm=0.5 to 1.5). The values in Table 1 are given in %, showing the inhibition of cellular proliferation, the concentration being 400 μg/ml (higher value) and 200 μg/ml (lower value).
(§3) Furthermore, (R)-(+)-α,α-diphenyl-2-pyrrolidinemethanol and (S)-(−)-α,α-diphenyl-2-pyrrolidinemethanol were tested. […] The results are given as IC50 (μg/ml).

[2] = tested on: Colo205 colon cancer cell line; experiment: tumor cell proliferation test (EZ4U tetrazolium), Colo205; format: cell-based; settings: for IC50 / inhibition at 200 µg/mL / inhibition at 400 µg/mL: Homo sapiens
Protocol: as §1, §2
(§4) In further tests, substances were dissolved in water, and their effect on the colon adenocarcinoma cell line Colo205 and pancreas adenocarcinoma cell line BxPC3 as targets was tested. The results obtained, in IC50 concentrations in μg/ml, are illustrated in Table 2.
(§5) A proliferation test—as described above—with an initial dilution of 400 μg/ml was carried out, either alone or in combination with 400, 200 or 100 μg of CHP. The cell lines used are illustrated in Table 3. […] Frequently, the proliferation is increased, or the inhibition achieved with specific substances is lower when using combined agents. The effect of CHP alone is shown on the left in the table, below each specified cell line, for the highest concentration of CHP (400 μg/ml).
as §3

[3] = tested on: BxPC3 pancreas tumor cell line; experiment: tumor cell proliferation test (EZ4U tetrazolium), BxPC3; format: cell-based; settings: Homo sapiens; for inhibition at 200 µg/mL / inhibition at 400 µg/mL: BXPC-3, 96 h, read-out: inhibition of cellular proliferation
Protocol: as §1, §2, §4, §3

[4] = tested on: T47D breast cancer cell line; experiment: tumor cell proliferation test, T47D; format: cell-based
Protocol: as §1, §2, §5, §3

Pana -1 pancreas cancer = experiment: tumor cell proliferation test, Pana -1; format: cell-based
Protocol: as §1, §2, §3

[5] = tested on: MDA-MB435 breast cancer cell line; experiment: tumor cell proliferation test (EZ4U tetrazolium), MDA-MB435; format: cell-based; settings: Homo sapiens, MDA-MB-435, 96 h, 4 days, read-out: inhibition of cellular proliferation; for inhibition at 200 µg/mL: MDA-MB435, 200 μg/ml; for inhibition at 400 µg/mL: MDA-MB435, 400 μg/ml
Protocol: as §1, §2

[6] = tested on: BT20 breast cancer cell line; experiment: tumor cell proliferation test (EZ4U tetrazolium), BT20; format: cell-based; settings: Homo sapiens, BT-20, 96 h, 4 days, read-out: inhibition of cellular proliferation; for inhibition at 200 µg/mL: BT20, 200 μg/ml; for inhibition at 400 µg/mL: BT20, 400 μg/ml
Protocol: as §1, §2

[7] = tested on: HT29 colon cancer cell line; experiment: tumor cell proliferation test (EZ4U tetrazolium), HT29; format: cell-based; settings: Homo sapiens, HT-29, 96 h, 4 days, read-out: inhibition of cellular proliferation; for inhibition at 200 µg/mL: HT29, 200 μg/ml; for inhibition at 400 µg/mL: HT29, 400 μg/ml
Protocol: as §1, §2

[8] = tested on: SW620 colon cancer cell line; experiment: tumor cell proliferation test, SW620; format: cell-based; settings: for inhibition at 400 µg/mL: Homo sapiens
Protocol: as §1, §2, §5

[9] = tested on: all 6 cell lines (MIA-PaCa2, Colo205, BxPC3, MDA-MB435, BT20, HT29); experiment: tumor cell proliferation test, mean value for all 6 cell lines; format: cell-based; settings: read-out: inhibition, mean value±SEM for all 6 cell lines
Protocol: as §1, §2

[10] = repeated oral administration to rats over 28 days, LC/MS of serum and urine; format: in vivo; settings: repeated oral administration over 28 days
Protocol: cis-4-Hydroxy-L-proline was repeatedly administered orally to rats over a period of 28 days. cis-4-Hydroxy-L-proline was analyzed in serum and urine samples using the LC/MS technique.

[11] = COLO 205, substances dissolved in water, read-out: IC50 Colo205
[12] = BXPC-3, substances dissolved in water, read-out: IC50 BxPC3
[13] = COLO 205, 96 h, Colo205, 200 μg/ml, 4 days, read-out: inhibition of cellular proliferation
[14] = COLO 205, 96 h, Colo205, 400 μg/ml, 4 days, read-out: inhibition of cellular proliferation
[15] = COLO 205, 96 h, read-out: inhibition of cellular proliferation

## OC(c1ccccc1)(c1ccccc1)[C@@H]1CCCN1 [Substance 231.02, (S)-(−)-α,α-diphenyl-2-pyrrolidinemethanol]
[1]; MIA PaCa-2
  IC50: 50 µg/mL (≈ 197 µM)
[2]; COLO 205
  IC50: 45 µg/mL
[3]; BXPC-3
  IC50: 50 µg/mL (≈ 197 µM)
[4]; Homo sapiens
  IC50: 190 µg/mL
Pana -1 pancreas cancer
  IC50: 55 µg/mL (≈ 217 µM)

## Br.CC(C)COC(=O)[C@@H]1CC(O)CN1C(c1ccccc1)c1ccccc1 (stereo partly drawn) [Substance A2-04, 4-hydroxy-1-diphenylmethylproline isobutyl ester hydrobromide]
[2]; [11]
  IC50: 6.2 µg/mL
[3]; [12]
  IC50: 12 µg/mL

## CN1CC(O)C[C@H]1C(=O)O (stereo partly drawn) [Substance A0.21, 4-hydroxy-1-methylproline]
[1]; MIA-PaCa2, 200 μg/ml, 4 days
  inhibition at 200 µg/mL: 21.1%
[1]; MIA-PaCa2, 400 μg/ml, 4 days
  inhibition at 400 µg/mL: 22.8%
[2]; Colo205, A0.21 100 alone (Con)
  % inhibition of proliferation (minus signs): −3.5%
[2]; Colo205, A0.21 200 alone (Con)
  % inhibition of proliferation (minus signs): −4.0%
[2]; [13]
  inhibition at 200 µg/mL: 21.1%
[2]; [14]
  inhibition at 400 µg/mL: 16.3%
[2]; COLO 205, Colo205, A0.21 400 μg/ml alone (Con), read-out: % inhibition of proliferation (minus signs)
  inhibition at 400 µg/mL: 8.2%
[3]; BxPC3, 200 μg/ml, 4 days
  inhibition at 200 µg/mL: 21.9%
[3]; BxPC3, 400 μg/ml, 4 days
  inhibition at 400 µg/mL: 16.2%
[5]
  inhibition at 200 µg/mL: 26.9%
  inhibition at 400 µg/mL: 23.2%
[6]
  inhibition at 200 µg/mL: 18.3%
  inhibition at 400 µg/mL: 14.9%
[7]
  inhibition at 200 µg/mL: 4.8%
  inhibition at 400 µg/mL: 4.7%
[4]; A0.21 100 alone (Con)
  % inhibition of proliferation (minus signs): −1.8%
[4]; A0.21 200 alone (Con)
  % inhibition of proliferation (minus signs): −1.2%
[4]; Homo sapiens, A0.21 400 μg/ml alone (Con), read-out: % inhibition of proliferation (minus signs)
  inhibition at 400 µg/mL: 0.4%
[8]; A0.21 100 alone (Con)
  % inhibition of proliferation (minus signs): −5.8%
[8]; A0.21 200 alone (Con)
  % inhibition of proliferation (minus signs): −6.3%
[8]; SW-620, A0.21 400 μg/ml alone (Con), read-out: % inhibition of proliferation (minus signs)
  inhibition at 400 µg/mL: 5.2%
[9]; 400 μg/ml
  inhibition at 400 µg/mL: 16.3 ± 2.7%

## O=C(O)[C@@H]1C[C@H](O)CN1 [CHP, cis-4-hydroxy-L-proline, reference compound]
[1]
  inhibition at 200 µg/mL: 34.5%
  inhibition at 400 µg/mL: 51.3%
[2]; [15]
  inhibition at 200 µg/mL: 60%
  inhibition at 400 µg/mL: 78.2%
[2]; COLO 205, read-out: IC50 Colo205
  IC50: 90 µg/mL
[2]; COLO 205, read-out: effect of CHP alone (% inhibition of proliferation, minus sign)
  inhibition at 400 µg/mL: 46%
[3]
  inhibition at 200 µg/mL: 27.8%
  inhibition at 400 µg/mL: 44.5%
[3]; BXPC-3, read-out: IC50 BxPC3
  IC50: 400 µg/mL (≈ 3050 µM)
[5]
  inhibition at 200 µg/mL: 19.9%
  inhibition at 400 µg/mL: 39.2%
[6]
  inhibition at 200 µg/mL: 6.5%
  inhibition at 400 µg/mL: 10.6%
[7]
  inhibition at 200 µg/mL: 1.7%
  inhibition at 400 µg/mL: 15.7%
[4]; Homo sapiens, read-out: effect of CHP alone (% inhibition of proliferation, minus sign)
  inhibition at 400 µg/mL: 17.4%
[8]; SW-620, CHP 400 μg/ml alone, read-out: effect of CHP alone (% inhibition of proliferation, minus sign)
  inhibition at 400 µg/mL: 14%
[9]
  inhibition at 400 µg/mL: 40 ± 10.1%
[10]
  level of cis-4-hydroxy-L-proline in serum or urine: rapidly dropped
[10]; serum and urine
  isomers and metabolites in the investigated samples (biotransformation): detection of isomers and metabolites

## CC(C)COC(=O)[C@@H]1CC(OC(=O)Nc2ccccc2)CN1C (stereo partly drawn) [Substance A2.23, 1-methyl-4-phenylaminocarbonyloxyproline isobutyl ester]
[1]; MIA-PaCa2, 200 μg/ml, 4 days
  inhibition at 200 µg/mL: 14.2%
[1]; MIA-PaCa2, 400 μg/ml, 4 days
  inhibition at 400 µg/mL: 0.3%
[2]; [13]
  inhibition at 200 µg/mL: 19.2%
[2]; [14]
  inhibition at 400 µg/mL: 14.1%
[3]; BxPC3, 200 μg/ml, 4 days
  inhibition at 200 µg/mL: 15.4%
[3]; BxPC3, 400 μg/ml, 4 days
  inhibition at 400 µg/mL: 2.1%
[5]
  inhibition at 200 µg/mL: 5.5%
  inhibition at 400 µg/mL: 8.6%
[6]
  inhibition at 200 µg/mL: 0%
  inhibition at 400 µg/mL: 0%
[7]
  inhibition at 200 µg/mL: -5%
  inhibition at 400 µg/mL: -5.3%
[9]; 400 μg/ml
  inhibition at 400 µg/mL: < 8%

## CC(C)COC(=O)[C@@H]1CC(O)CN1C1CCCCC1 (stereo partly drawn) [Substance A2-03, 4-hydroxy-1-cyclohexylproline isobutyl ester]
[2]; [11]
  IC50: 50 µg/mL
[3]; [12]
  IC50: 50 µg/mL (≈ 186 µM)

## CCOC(=O)C1CC(O)CN1 [Substance A-1, cis-hydroxy-L-proline ethyl ester]
[2]; [11]
  IC50: 50 µg/mL
[3]; [12]
  IC50: 5 µg/mL (≈ 31.4 µM)
